Source: ChEMBL document CHEMBL4619774 (J Med Chem, 2020)

What was measured:
[1] = molecular target: T1, Coagulation factor XI (Homo sapiens, UniProt P03951); assay: Inhibition of […] human plasma F11a catalytic domain expressed in Escherichia coli strain BL21(DE3) using D-Leu-Pro-Arg*Rh110-D-Pro as substrate preincubated for 60 mins followed by substrate addition and measured after 60 mins by fluorescence assay
[2] = species: Homo sapiens; assay: Selectivity ratio of IC50 for inhibition of human complement FD to IC50 for inhibition of human F11a
[3] = Oral bioavailability in C57BL/6 mouse at 3 mg/kg by LC-MS/MS analysis; assay type: ADME, organism-based; settings: in vivo
[4] = molecular target: Tissue-type plasminogen activator (Homo sapiens, UniProt P00750); assay type: single protein
Sequence of Tissue-type plasminogen activator (P00750 whole entry): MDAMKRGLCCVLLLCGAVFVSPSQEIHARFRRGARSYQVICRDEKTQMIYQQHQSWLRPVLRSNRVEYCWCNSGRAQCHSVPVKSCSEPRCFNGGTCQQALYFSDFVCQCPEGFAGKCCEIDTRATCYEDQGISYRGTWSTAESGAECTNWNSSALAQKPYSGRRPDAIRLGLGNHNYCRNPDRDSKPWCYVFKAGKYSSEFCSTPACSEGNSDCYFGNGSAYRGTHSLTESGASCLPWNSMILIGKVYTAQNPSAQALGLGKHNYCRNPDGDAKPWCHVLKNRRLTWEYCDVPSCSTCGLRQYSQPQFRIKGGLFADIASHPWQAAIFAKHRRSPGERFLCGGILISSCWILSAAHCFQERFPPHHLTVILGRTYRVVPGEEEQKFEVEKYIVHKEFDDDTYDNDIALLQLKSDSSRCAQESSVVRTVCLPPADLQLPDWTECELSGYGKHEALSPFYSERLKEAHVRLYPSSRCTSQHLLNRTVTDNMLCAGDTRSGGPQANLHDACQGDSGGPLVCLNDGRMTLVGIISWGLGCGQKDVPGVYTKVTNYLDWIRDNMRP

[5] = molecular target: Prothrombin (Homo sapiens, UniProt P00734); assay type: single protein
[6] = molecular target: Plasminogen (Homo sapiens, UniProt P00747); assay type: single protein
Sequence of Plasminogen (P00747 97-580 limits assumed): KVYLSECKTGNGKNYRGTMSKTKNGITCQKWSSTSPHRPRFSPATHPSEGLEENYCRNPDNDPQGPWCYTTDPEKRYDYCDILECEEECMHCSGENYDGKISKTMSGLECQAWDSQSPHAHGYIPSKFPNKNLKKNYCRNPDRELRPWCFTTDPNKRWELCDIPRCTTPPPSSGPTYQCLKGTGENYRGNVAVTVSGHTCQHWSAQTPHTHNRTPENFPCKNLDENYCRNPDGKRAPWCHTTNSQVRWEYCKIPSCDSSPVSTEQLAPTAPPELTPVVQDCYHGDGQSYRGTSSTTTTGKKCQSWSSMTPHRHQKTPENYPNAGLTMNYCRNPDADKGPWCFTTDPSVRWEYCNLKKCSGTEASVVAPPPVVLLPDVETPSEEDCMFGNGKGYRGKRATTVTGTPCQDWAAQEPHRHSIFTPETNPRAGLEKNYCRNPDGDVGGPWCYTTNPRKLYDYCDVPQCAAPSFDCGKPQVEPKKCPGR
Sequence of Plasminogen (P00747 581-810 limits assumed): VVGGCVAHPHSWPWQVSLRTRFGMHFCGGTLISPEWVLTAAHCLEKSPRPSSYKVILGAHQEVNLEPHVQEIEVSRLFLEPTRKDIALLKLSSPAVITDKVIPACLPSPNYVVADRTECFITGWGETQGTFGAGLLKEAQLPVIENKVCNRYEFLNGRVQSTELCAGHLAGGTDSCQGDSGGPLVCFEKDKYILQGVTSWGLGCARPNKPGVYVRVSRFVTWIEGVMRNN

[7] = molecular target: T2, Urokinase-type plasminogen activator (Homo sapiens, UniProt P00749); assay type: single protein
[8] = molecular target: Coagulation factor X (Homo sapiens, UniProt P00742); assay type: single protein
Sequence of Coagulation factor X (P00742 41-179 limits assumed): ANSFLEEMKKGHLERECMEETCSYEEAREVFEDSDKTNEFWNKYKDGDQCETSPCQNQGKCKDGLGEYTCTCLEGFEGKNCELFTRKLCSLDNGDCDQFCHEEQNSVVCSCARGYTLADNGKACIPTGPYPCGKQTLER
Sequence of Coagulation factor X (P00742 235-488 limits assumed): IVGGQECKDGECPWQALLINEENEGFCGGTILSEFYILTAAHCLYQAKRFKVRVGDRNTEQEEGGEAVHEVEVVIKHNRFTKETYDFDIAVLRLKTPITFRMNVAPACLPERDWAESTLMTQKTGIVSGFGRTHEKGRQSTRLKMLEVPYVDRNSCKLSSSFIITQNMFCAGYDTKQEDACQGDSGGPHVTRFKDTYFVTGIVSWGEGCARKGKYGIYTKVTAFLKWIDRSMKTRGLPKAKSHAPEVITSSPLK

[9] = Tmax in C57BL/6 mouse at 0.4 mg/kg, iv bolus injection or 3 mg/kg, po by LC-MS/MS analysis; assay type: ADME, organism-based; settings: in vivo
[10] = molecular target: Plasma kallikrein (Homo sapiens, UniProt P03952); assay type: single protein
[11] = Clearance in C57BL/6 mouse at 0.4 mg/kg, iv bolus injection or 3 mg/kg, po by LC-MS/MS analysis; assay type: ADME, organism-based; settings: in vivo
[12] = molecular target: T3, Coagulation factor VII (Homo sapiens, UniProt P08709); assay type: single protein
T3 sequence (P08709 whole entry): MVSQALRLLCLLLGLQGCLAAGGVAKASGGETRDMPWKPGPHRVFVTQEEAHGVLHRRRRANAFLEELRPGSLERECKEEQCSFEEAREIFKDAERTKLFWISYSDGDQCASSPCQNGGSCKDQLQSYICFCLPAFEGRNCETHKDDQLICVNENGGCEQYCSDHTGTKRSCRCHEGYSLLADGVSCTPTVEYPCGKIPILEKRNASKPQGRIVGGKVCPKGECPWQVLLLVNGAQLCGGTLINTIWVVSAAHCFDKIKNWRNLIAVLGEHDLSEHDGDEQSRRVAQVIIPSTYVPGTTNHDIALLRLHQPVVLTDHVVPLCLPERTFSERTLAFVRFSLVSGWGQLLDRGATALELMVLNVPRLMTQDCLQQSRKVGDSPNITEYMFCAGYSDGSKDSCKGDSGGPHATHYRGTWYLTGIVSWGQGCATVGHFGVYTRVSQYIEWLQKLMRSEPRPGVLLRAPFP

[13] = molecular target: T1, Coagulation factor XI; assay: Inhibition of human F11a using D-Leu-Pro-Arg*Rh110-D-Pro as substrate preincubated for 60 mins followed by substrate addition and measured after 60 mins by fluorescence assay
[14] = Dose normalized Cmax in C57BL/6 mouse at 0.4 mg/kg, iv bolus injection or 3 mg/kg, po by LC-MS/MS analysis; assay type: ADME, organism-based; settings: in vivo
[15] = Terminal half life in C57BL/6 mouse at 0.4 mg/kg, iv bolus injection or 3 mg/kg, po by LC-MS/MS analysis; assay type: ADME, organism-based; settings: in vivo, read-out: beta t1/2 (converted)
[16] = molecular target: Complement factor D (Homo sapiens, UniProt P00746); assay type: single protein
Sequence of Complement factor D (P00746 whole entry): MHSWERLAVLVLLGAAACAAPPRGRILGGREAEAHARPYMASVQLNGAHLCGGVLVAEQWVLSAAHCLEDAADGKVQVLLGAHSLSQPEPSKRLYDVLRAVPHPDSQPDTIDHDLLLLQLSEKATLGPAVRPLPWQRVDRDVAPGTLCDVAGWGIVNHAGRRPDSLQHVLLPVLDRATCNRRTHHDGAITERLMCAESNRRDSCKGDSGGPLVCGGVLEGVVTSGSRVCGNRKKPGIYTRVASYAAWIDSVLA

[17] = molecular target: Coagulation factor IX (Homo sapiens, UniProt P00740); assay type: single protein
Sequence of Coagulation factor IX (P00740 47-191 limits assumed): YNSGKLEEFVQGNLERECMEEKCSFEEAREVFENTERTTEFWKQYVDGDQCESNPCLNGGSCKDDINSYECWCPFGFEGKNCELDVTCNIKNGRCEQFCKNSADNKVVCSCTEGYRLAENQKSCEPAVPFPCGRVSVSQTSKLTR
Sequence of Coagulation factor IX (P00740 227-461 limits assumed): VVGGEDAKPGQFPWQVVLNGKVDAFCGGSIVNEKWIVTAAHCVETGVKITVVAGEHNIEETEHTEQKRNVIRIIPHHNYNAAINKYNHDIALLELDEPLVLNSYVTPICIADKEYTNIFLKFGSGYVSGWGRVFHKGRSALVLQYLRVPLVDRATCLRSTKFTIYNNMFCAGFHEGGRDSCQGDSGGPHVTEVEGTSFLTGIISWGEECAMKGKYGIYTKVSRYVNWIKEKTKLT

[18] = Dose normalized AUC in C57BL/6 mouse at 3 mg/kg, po by LC-MS/MS analysis; assay type: ADME, organism-based; settings: in vivo
[19] = Volume of distribution at steady state in C57BL/6 mouse at 0.4 mg/kg, iv bolus injection or 3 mg/kg, po by LC-MS/MS analysis; assay type: ADME, organism-based; settings: in vivo, read-out: Vdss
[20] = Dose normalized AUC in C57BL/6 mouse at 0.4 mg/kg, iv bolus injection by LC-MS/MS analysis; assay type: ADME, organism-based; settings: in vivo
[21] = molecular target: Prostaglandin G/H synthase 1 (Homo sapiens, UniProt P23219); assay: Inhibition of COX1 (unknown origin)
Sequence of Prostaglandin G/H synthase 1 (P23219 whole entry): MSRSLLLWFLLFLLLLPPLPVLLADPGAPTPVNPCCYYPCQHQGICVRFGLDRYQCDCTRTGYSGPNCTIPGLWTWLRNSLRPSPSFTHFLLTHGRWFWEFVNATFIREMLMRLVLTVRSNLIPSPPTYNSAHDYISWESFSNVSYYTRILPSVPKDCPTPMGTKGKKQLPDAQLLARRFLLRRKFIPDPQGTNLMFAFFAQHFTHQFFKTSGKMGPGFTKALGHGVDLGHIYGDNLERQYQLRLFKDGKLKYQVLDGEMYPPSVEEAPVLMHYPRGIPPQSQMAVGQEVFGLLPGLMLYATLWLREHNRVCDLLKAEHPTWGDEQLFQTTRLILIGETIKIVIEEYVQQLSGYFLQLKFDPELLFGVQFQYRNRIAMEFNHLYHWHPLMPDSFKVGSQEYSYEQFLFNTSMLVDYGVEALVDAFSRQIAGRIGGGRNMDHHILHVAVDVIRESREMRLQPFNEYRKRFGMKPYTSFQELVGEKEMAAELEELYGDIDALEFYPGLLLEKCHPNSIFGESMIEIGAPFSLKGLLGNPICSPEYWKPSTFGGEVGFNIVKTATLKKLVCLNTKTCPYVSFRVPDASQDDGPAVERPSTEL

[22] = molecular target: Synaptic vesicular amine transporter (Homo sapiens, UniProt Q05940); assay: Inhibition of VMAT2 (unknown origin)
Sequence of Synaptic vesicular amine transporter (Q05940 whole entry): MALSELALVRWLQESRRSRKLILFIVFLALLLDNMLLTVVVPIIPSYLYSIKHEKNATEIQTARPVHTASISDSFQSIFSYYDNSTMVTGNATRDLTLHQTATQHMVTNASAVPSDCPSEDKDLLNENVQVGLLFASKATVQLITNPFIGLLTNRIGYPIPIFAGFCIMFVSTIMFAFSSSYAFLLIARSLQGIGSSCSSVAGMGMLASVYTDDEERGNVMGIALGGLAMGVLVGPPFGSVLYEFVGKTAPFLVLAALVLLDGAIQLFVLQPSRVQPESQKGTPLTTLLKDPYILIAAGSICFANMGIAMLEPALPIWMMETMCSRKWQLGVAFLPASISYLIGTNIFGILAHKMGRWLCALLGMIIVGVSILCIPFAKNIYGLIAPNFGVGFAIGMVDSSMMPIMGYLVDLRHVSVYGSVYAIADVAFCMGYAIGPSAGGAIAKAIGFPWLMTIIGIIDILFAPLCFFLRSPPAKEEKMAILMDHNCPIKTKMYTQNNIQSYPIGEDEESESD

[23] = Volume of distribution at steady state in C57BL/6 mouse at 1 mg/kg, iv bolus injection or 3 mg/kg, po by LC-MS/MS analysis; assay type: ADME, organism-based; settings: in vivo, read-out: Vdss
[24] = system: Plasma; assay: Effect on coagulation in human plasma assessed as concentration required to double the prothrombin time by thromboplastin-DS reagent based automated coagulometric method; assay type: ADME, cell-free
[25] = molecular target: T2, Urokinase-type plasminogen activator; assay type: ADME
[26] = molecular target: 3',5'-cyclic-AMP phosphodiesterase 4D (Homo sapiens, UniProt Q08499); assay: Inhibition of PDE4D (unknown origin)
Sequence of 3',5'-cyclic-AMP phosphodiesterase 4D (Q08499 whole entry): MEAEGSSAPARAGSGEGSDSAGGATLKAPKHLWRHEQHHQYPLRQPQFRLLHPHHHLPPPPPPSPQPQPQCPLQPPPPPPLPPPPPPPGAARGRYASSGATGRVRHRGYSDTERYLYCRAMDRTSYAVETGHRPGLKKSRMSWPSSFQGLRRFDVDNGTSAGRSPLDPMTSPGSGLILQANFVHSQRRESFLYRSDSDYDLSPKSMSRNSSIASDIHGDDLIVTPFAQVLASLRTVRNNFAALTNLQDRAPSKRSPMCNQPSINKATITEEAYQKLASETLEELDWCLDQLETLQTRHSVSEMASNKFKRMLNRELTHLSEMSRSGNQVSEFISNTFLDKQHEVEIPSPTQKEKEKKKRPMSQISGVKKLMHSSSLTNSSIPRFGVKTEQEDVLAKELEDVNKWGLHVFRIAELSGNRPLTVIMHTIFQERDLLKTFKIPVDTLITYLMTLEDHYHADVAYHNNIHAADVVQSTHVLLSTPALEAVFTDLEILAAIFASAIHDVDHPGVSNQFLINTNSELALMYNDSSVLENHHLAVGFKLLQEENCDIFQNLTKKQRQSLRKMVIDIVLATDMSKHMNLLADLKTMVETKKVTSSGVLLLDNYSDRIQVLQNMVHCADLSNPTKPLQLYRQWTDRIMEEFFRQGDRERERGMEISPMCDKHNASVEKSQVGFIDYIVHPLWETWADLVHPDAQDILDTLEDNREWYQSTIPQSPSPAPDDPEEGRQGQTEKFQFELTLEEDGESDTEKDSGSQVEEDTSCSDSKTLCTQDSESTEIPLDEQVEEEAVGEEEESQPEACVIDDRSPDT

[27] = Clearance in C57BL/6 mouse at 1 mg/kg, iv bolus injection or 3 mg/kg, po by LC-MS/MS analysis; assay type: ADME, organism-based; settings: in vivo
[28] = system: Plasma; assay: Anticoagulant activity in human plasma assessed as concentration required to double the activated partial thromboplastin time incubated for 3 mins followed by calcium chloride addition by aPTT-s reagent based automated coagulometric method; assay type: functional
[29] = Terminal half life in C57BL/6 mouse at 1 mg/kg, iv bolus injection or 3 mg/kg, po by LC-MS/MS analysis; assay type: ADME, organism-based; settings: in vivo, read-out: beta t1/2 (converted)
[30] = Dose normalized Cmax in C57BL/6 mouse at 1 mg/kg, iv bolus injection or 3 mg/kg, po by LC-MS/MS analysis; assay type: ADME, organism-based; settings: in vivo

T1 sequence (P03951 19-387 limits assumed): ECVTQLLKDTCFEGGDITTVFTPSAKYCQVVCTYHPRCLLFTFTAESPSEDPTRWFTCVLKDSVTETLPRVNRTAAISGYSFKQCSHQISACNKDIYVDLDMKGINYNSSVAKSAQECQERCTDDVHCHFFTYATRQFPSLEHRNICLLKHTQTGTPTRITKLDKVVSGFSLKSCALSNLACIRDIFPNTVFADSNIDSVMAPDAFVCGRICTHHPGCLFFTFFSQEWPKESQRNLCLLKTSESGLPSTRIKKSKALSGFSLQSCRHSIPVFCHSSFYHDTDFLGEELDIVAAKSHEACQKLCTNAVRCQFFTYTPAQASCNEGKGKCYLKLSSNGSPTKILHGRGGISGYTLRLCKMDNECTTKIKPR
T1 sequence (P03951 388-625 limits assumed): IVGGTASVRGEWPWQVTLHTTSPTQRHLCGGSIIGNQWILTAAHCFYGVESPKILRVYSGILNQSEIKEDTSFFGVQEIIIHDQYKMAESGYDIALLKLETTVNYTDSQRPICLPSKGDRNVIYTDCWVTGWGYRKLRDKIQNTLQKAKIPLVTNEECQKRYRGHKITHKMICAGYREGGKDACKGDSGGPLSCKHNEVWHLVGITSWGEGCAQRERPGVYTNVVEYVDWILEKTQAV

Structure (SMILES)	bioavailability [3]	IC50 [4]	IC50 [5]	IC50 [6]	IC50 [7]	IC50 [8]	IC50 [12]	IC50 [16]	IC50 [17]	AUC/dose [18]	further results
CC(C)c1cc(CCN2CCc3cccc(C(=O)O)c32)cc(-c2ccc3c(c2)[C@H](N)CO3)c1	36%	660 nM	3080 nM	2560 nM	520 nM	1830 nM	6230 nM	4410 nM	3300 nM	14041 nM·h	IC50 [1]: 220 nM; Ratio IC50 [2]: 700; Tmax [9]: 0.7 h; IC50 [10]: 58 nM; clearance [11]: 1 mL/min/kg; IC50 [13]: 6 nM; Cmax/dose [14]: 1.495 µM; half-life [15]: 9.2 h; Vd [19]: 0.4 L/kg; AUC/dose [20]: 38652 nM·h
CC(C)c1cc(COc2ccccc2CC(=O)O)cc(-c2ccc3c(c2)[C@H](N)CO3)c1	100%	90 nM	90 nM	2600 nM	47 nM	500 nM	5100 nM	40 nM	170 nM	48927 nM·h	IC50 [21]: 3300 nM; IC50 [22]: 5200 nM; Vd [23]: 0.4 L/kg; 2PT [24]: 9.9 µM; IC50 [25]: 47 nM; IC50 [26]: 7200 nM; clearance [27]: 1 mL/min/kg; 2aPTT [28]: 2.2 µM; half-life [29]: 5.5 h; Cmax/dose [30]: 5.263 µM
